The species named for test [1] is Rattus norvegicus. In words: Concentration required to inhibit NA-induced contractions in rat portal vein by 50%. Format: functional.
The species entered for test [2] is Cavia porcellus. Briefly: Compound was evaluated for its hypotensive activity (decrease in blood pressure) in male guinea pigs. Format: functional.
The subject of test [3] is Rattus norvegicus. Briefly: Changes in systolic blood pressure was measured at intervals of 1 hr for 4 hr after oral administration of 0.1 mg/kg in rats. In kind it is functional, Artery.
The species named for test [4] is Cavia porcellus. In words: Concentration required to inhibit spontaneous tone of guinea pig isolated tracheal spirals. Format: functional. Conditions: Trachea.
Test [5] deals with Cavia porcellus. In words: Compound was evaluated in vivo for its ability to inhibit methacholine induced bronchospasm in male guinea pig. In kind it is functional.
For test [6], the species on record is Rattus norvegicus. In words: Compound was evaluated for its hypotensive activity (decrease in blood pressure) in normotensive rats. In kind it is functional.
Test [7] is filed under the species Rattus norvegicus. Briefly: Percent inhibition of NA-induced contractions in rat portal vein at 10 uM was evaluated. In kind it is functional. Conditions: for inhibition at 10 µM: Rattus norvegicus.

The record followed here is ChEMBL document CHEMBL1149931, “4-(2-pyridyl)-2,2-dimethylnaphthalen-1-ones as new potassium channel activators with increased airways selectivity” (Bioorg Med Chem Lett, 1995).

For orientation: IC50 means the point on the concentration scale where inhibition reaches its midpoint. A lower IC50 goes with greater potency. A word on the ED50: it is the dose at which the effect has come halfway, by size or by number of responders. Low readings indicate an effect at a small dose, high ones a need for a large dose. The inhibition is the drop in the measured response relative to a control, in per cent. A lower inhibition goes with little suppression. One may read the Inhibition as the share of the control response that was lost under treatment. Low values mean a response near the control, high ones a response far below the control.

Some results are limits rather than exact numbers.

For the molecule `CC1(C)C=C(c2cccc[n+]2[O-])c2cc(Cl)c(Cl)cc2C1=O`, the figures for the half-maximal inhibitory concentration (IC50) in test [1] and in test [4] were 470 nM and 210 nM, respectively. Moreover, the ED25 in test [2] came to 0.0933 mg/kg; in test [6], 0.079 mg/kg. In test [3], the “Max fall in blood pressure” value stood at 74 mmHg. It took a dose of 0.0912 mg/kg to reach the 50% effect level in test [5] (ED50).
Turning to `CC1(C)C=C(c2cccc[n+]2[O-])c2cc(C(F)(F)C(F)(F)F)ccc2C1=O`, the concentration for half-maximal inhibition (IC50) in test [1] was found to be 590 nM; in test [4] it was 110 nM. Moreover, the results for the ED25 in test [2], in test [5] and in test [6] were 0.0876 mg/kg, 0.036 mg/kg and 0.776 mg/kg, respectively.
On to `CC1(C)C=C(c2ccccn2)c2cc(Br)ccc2C1=O`, for which the IC50 in test [1] was 48000 nM; in test [4], over 10000 nM.
As to `CC1(C)CC(O)(c2cccc[n+]2[O-])c2cc(C#N)ccc2C1=O` (stereo not drawn), in test [4], the IC50 amounted to 7300 nM. This molecule returned an inhibition at 10 µM in test [7] of 30%.
In the case of `CC1(C)C=C(c2cccc[n+]2[O-])c2cc(Br)ccc2C1=O`, the IC50 in test [1] came to 810 nM; in test [4], 230 nM. The ED25 in test [2] stood at 0.0891 mg/kg; in test [6], 0.0877 mg/kg. For the same molecule, the “Max fall in blood pressure” value in test [3] was 53 mmHg. The molecule further came in with a 50% effective dose (ED50) in test [5] of 0.148 mg/kg.
As for `COC1(c2cccc[n+]2[O-])CC(C)(C)C(=O)c2ccc(Br)cc21` (stereo not drawn), in test [4], the 50% inhibitory concentration (IC50) is over 10000 nM. In addition, in test [7], the inhibition at 10 µM was determined as 20%.
Turning to `CC1(C)CC(c2cccc[n+]2[O-])c2cc(C#N)ccc2C1=O` (stereo not drawn), the 50% inhibitory concentration (IC50) stood at 160 nM in test [1] and 2500 nM in test [4]. The “Max fall in blood pressure” value in test [3] is on record as 99.5 mmHg.
In test [4], `CC1(C)C(=O)c2ccc(Br)cc2C2(c3cccc[n+]3[O-])OC12` (stereo not drawn) showed an IC50 of 1700 nM. The Inhibition in test [7] was determined as 12%.
In the case of `CC1(C)C=C(c2cccc[n+]2[O-])c2cc(C#N)ccc2C1=O`, the IC50 in test [1] came to 900 nM; in test [4] it was 200 nM. For the same molecule, the results for the ED25 in test [2], in test [5] and in test [6] were 0.0647 mg/kg, 0.0303 mg/kg and 0.079 mg/kg, respectively.
As for `CC1(C)Oc2ccc(C#N)cc2[C@H](N2CCCC2=O)[C@H]1O` (single isomer, unassigned) [(-)-CROMAKALIM], the IC50 in test [1] turned out to be 100 nM; in test [4], 280 nM. Also, the values for the ED25 in test [2], in test [5] and in test [6] were 0.0075 mg/kg, 0.0162 mg/kg and 0.0215 mg/kg, respectively.
